The source of these data is US20170087108A1, “METHODS OF IMPROVING PHYSIOLOGICAL CONDITIONS RELATED TO PREGNANCY THROUGH DIETARY SUPPLEMENTATION” (Natural Alternatives International, Inc., priority 2015, published 2017).

The test system of data set [1] is pigs. The data set can be described thus: Dietary supplementation of female pigs: survivability and live births per litter. In kind it is in vivo. The conditions noted are these: vs no supplementation and vs carnosine. An excerpt: Beta-alanine will be used as a dietary supplement for pigs.
Beta-alanine supplementation will be provided to female pigs during pregnancy. Beta-alanine will be provided in dosages provided in concentrations and/or percentages for times described in this disclosure. Controls will be provided. Controls will include a group of female pigs given no additional supplementation beyond those currently administered during pig pregnancies. Another control group will be provided with supplementation with carnosine at dosages provided in concentrations and/or percentages for times described in this disclosure.
Beta-alanine supplementation will be provided to female pigs prior to and during pregnancy. Beta-alanine will be provided in dosages provided in concentrations and/or percentages for times described in this disclosure. Controls will be provided. Controls will include a group of female pigs given no additional supplementation beyond those currently administered during pig pregnancies. Another control group will be provided with supplementation with carnosine at dosages provided in concentrations and/or percentages for times described in this disclosure.
Beta-alanine supplementation will be provided to female pigs starting from breeding age through pregnancy. Beta-alanine will be provided in dosages provided in concentrations and/or percentages for times described in this disclosure. Controls will be provided. Controls will include a group of female pigs given no additional supplementation beyond those currently administered during pig pregnancies. Another control group will be provided with supplementation with carnosine at dosages provided in concentrations and/or percentages for times described in this disclosure.
Beta-alanine supplementation will be provided to female pigs from birth through pregnancy. Beta-alanine will be provided in dosages provided in concentrations and/or percentages for times described in this disclosure. Controls will be provided. Controls will include a group of female pigs given no additional supplementation beyond those currently administered during pig pregnancies. Another control group will be provided with supplementation with carnosine at dosages provided in concentrations and/or percentages for times described in this disclosure.

The test system of data set [2] is pigs. The following applies: Example 2: supplementation of female pigs during pregnancy; vs no supplementation and vs carnosine. An excerpt:
(§1) Beta-alanine will be used as a dietary supplement for pigs and chickens.
(§2) Beta-alanine supplementation will be provided to female pigs and female chickens during pregnancy. Beta-alanine will be provided in dosages provided in concentrations and/or percentages for times described in this disclosure. Controls will be provided. Controls will include a group of female pigs and female chickens given no additional supplementation beyond those currently administered during pig and chicken pregnancies. Another control group will be provided with supplementation with carnosine provided in dosages provided in concentrations and/or percentages for times described in this disclosure.

The test system of another data set is chickens. The conditions noted are these: Example 2: supplementation of female chickens during pregnancy; vs no supplementation and vs carnosine.
Text: as §1, §2

For data set [3] the following is noted: taken as a free amino acid; some individuals; cited from earlier work.
[4] abbreviates: Example 1: supplementation during pregnancy.
[5] abbreviates: Example 3: supplementation prior to and during pregnancy.
[6] abbreviates: Example 4: supplementation from breeding age through pregnancy.
[7] abbreviates: Example 5: supplementation from birth through pregnancy.

As for `NCCC(=O)O` [beta-alanine], the “amount of live births per litter” value in the data set with pigs [1] (setting [4]), in the data set on pigs [1] (setting [5]), with pigs [1] (setting [6]) and with pigs [1] (setting [7]) was “improves” throughout. Moreover, the survivability result in the data set on pigs [1] (setting [4]), in the data set with pigs [1] (setting [5]), in the data set on pigs [1] (setting [6]) and with pigs [1] (setting [7]) was “improves” in each case. Further, in the data set with pigs [2], the “early development rate for piglets” value is “improves”. In the data set with chickens, the “early development rate for chicks” value is “improves”. Besides, in data set [3], the “duration of flushing/tingling of the skin” value was “less than 60 minutes”.
